Experimental data as given in ChEMBL document CHEMBL1147402, “Synthesis and antitumour activity of pyrene-linked pyrrolo [2,1-c]benzodiazepine hybrids” (Bioorg Med Chem Lett, 2004).

Assays:
Format in all cases: functional
Conditions in all cases: Homo sapiens, read-out: LC50 (the source's name)
[1] = test system: A498; experiment: In vitro cytotoxicity against […] cell line
[2] = test system: SNB-19; experiment: In vitro cytotoxicity against CNS SNB-19 cell line
[3] = test system: HCC 2998; experiment: In vitro cytotoxicity against colon […] cell line
[4] = test system: DU-145; experiment: In vitro cytotoxicity against prostate DU-145 cell line
[5] = test system: NCI-H226; experiment: In vitro cytotoxicity against non-small cell lung NCI-H226 cell line
[6] = test system: M14; experiment: In vitro cytotoxicity against melanoma M14 cell line
[7] = test system: SR; experiment: In vitro cytotoxicity against leukemia SR cell line
[8] = test system: SF-539; experiment: In vitro cytotoxicity against CNS SF-539 cell line

**Q.** Which results are given for `COc1cc2c(cc1OCCCC(=O)Nc1cc3cccc4ccc5cccc1c5c43)N=C[C@@H]1CCCN1C2=O`?
**A.** CC50 [1]: 0.04 µM; CC50 [2]: 0.42 µM; CC50 [3]: 0.01 µM; CC50 [4]: 0.24 µM; CC50 [5]: < 0.01 µM; CC50 [6]: 0.05 µM; CC50 [7]: 0.05 µM; CC50 [8]: 0.18 µM
